Values quoted from earlier work, collected in PMC7395068, “The evolution of strategies to minimise the risk of human drug-induced liver injury (DILI) in drug discovery and development” (Archives of Toxicology, 2020).
Where two headings read alike, the source gives them in different places.

Experiments:
[1] = system: HepG2 cells, primary human hepatocytes; details: ref Garside 2014, cited from earlier work; for Cluster 1-6 +VE Assay: In vitro Assay
[2] = system: HepG2 cells; details: In vitro Assay; ref O'Brien 2006; cited from earlier work
[3] = system: HepG2 cells; details: In vitro Assay; ref Persson 2013; cited from earlier work
[4] = system: human hepatocytes; details: In vitro Assay; ref Xu 2008; cited from earlier work
[5] = system: PHH spheroids; details: In vitro Assay; ref Vorrink 2018; cited from earlier work
[6] = cited from earlier work
[7] = cited from earlier work; remark: listed apart in the source
[8] = system: THLE or HepG2 cells, isolated mitochondria, BSEP; details: cited from earlier work
[9] = system: THLE-Null and THLE-3A4 cells; details: In vitro Assay; ref Gustafsson 2014; cited from earlier work
[10] = system: rBsep; details: In vitro Assay; ref Dawson 2012; cited from earlier work
[11] = system: primary human hepatocytes, NIH3T3 fibroblasts, BSEP, CYP3A4; details: In vitro Assay; ref Schadt 2015; cited from earlier work
[12] = system: isolated mouse liver mitochondria; details: In vitro Assay; ref Porceddu 2012; cited from earlier work

c1ccc(CN(CC2=NCCN2)c2ccccc2)cc1 [antazoline]
Cluster 1-6 +VE Assay [1]: -VE

CN(C)C(=O)Oc1cc(OC(=O)N(C)C)cc(C(O)CNC(C)(C)C)c1 (stereo not drawn) [bambuterol]
Structural based (HCI) [2]: +VE
Cluser analysis [3]: -VE
Structural based (HCI) [3]: -VE
Structural based (HCI) [4]: -VE
hLiMTs ATP <20 x Cmax [5]: -VE
In vivo DILI ([6]; ref O'Brien 2006): -VE
In vivo DILI ([6]; ref Persson 2013): -VE
In vivo DILI ([6]; ref Vorrink 2018): -VE
In vivo DILI ([6]; ref Xu 2008): -VE

OC(CCN1CCCCC1)(c1ccccc1)C1CC2C=CC1C2 (stereo not drawn) [biperiden]
Cluster 1-6 +VE Assay [1]: -VE

CCCCN(CCCC)CCCOC(=O)c1ccc(N)cc1 [butacaine]
In vivo DILI ([6]; ref Garside 2014): -VE
Cluster 1-6 +VE Assay [1]: +VE

CO[C@@]1(NC(=O)C2SC(=C(C(N)=O)C(=O)O)S2)C(=O)N2C(C(=O)O)=C(CSc3nnnn3C)CS[C@@H]21 (stereo partly drawn) [cefotetan]
DILI +VE (5-8), DILI -VE (-4) ([7]; ref Chen 2016): -VE
DILI severity category ([7]; ref Chen 2016): Ambiguous DILI-concern
In vivo DILI ([6]; ref Garside 2014): -VE
Cluster 1-6 +VE Assay [1]: -VE

COc1ccc(C(Cl)=C(c2ccc(OC)cc2)c2ccc(OC)cc2)cc1 [chlorotrianisene]
In vivo DILI ([6]; ref Garside 2014): -VE
Cluster 1-6 +VE Assay [1]: -VE

O=C(O)c1cc(-c2ccccc2)nc2ccccc12 [cinchophen]
DILI +VE (5-8), DILI -VE (-4) ([7]; in vivo): +VE
DILI severity category ([7]; in vivo): vMost-DILI-Concern
Partition Hybrid HRM Score [8]: +VE
In vivo DILI ([6]; in vivo): +VE
THLE-Null [9]: -VE
Inhibition of rBsep cutoff<1& cmax u>.2 [10]: -VE
Inhibition of rBsep cutoff<3 [10]: +VE

CC(C)(Oc1ccc(C2CC2(Cl)Cl)cc1)C(=O)O (stereo not drawn) [ciprofibrate]
Cellular toxicity (3T3 cells) [11]: -VE
Combined Assay [11]: -VE
GSH adduct HML [11]: -VE
Hepatocyte cellular toxicity [11]: -VE
MitoTox 3T3 [11]: -VE
TDI CYP3A4 [11]: -VE
hBSEP inhibition [11]: -VE
Structural based (HCI) [2]: +VE
Structural based (HCI) [4]: +VE
In vivo DILI ([6]; ref Dawson 2012): +VE
In vivo DILI ([6]; ref Gustafsson 2014): +VE
In vivo DILI ([6]; ref O'Brien 2006): +VE
In vivo DILI ([6]; ref Schadt 2015): -VE
In vivo DILI ([6]; ref Xu 2008): +VE
THLE-Null [9]: -VE
THLE-Null/3A4 [9]: -VE
Inhibition of rBsep cutoff<1& cmax u>.2 [10]: -VE
Inhibition of rBsep cutoff<3 [10]: +VE

O=c1ccc2ccccc2o1 [coumarin]
hLiMTs ATP <20 x Cmax [5]: +VE (IC20 < 20 × Cmax.tot cut-off)
In vivo DILI ([6]; […]): +VE
In vivo DILI ([6]; ref Porceddu 2012): +VE
In vivo DILI ([6]; ref Vorrink 2018): +VE
in vitro data EC2<=1x Cmax [12]: +VE
in vitro data EC20<=2uM [12]: +VE

CCCCC[C@H](O)/C=C/[C@H]1[C@H](O)CC(=O)[C@@H]1C/C=C\CCCC(=O)O [dinoprostone]
In vivo DILI ([6]; ref Garside 2014): -VE
Cluster 1-6 +VE Assay [1]: -VE

CC(C)OC(=O)C(C)(C)Oc1ccc(C(=O)c2ccc(Cl)cc2)cc1 [fenofibrate]
Cluser analysis [3]: -VE
Structural based (HCI) [4]: -VE
Partition Hybrid HRM Score ([8]; In vitro Assay, ref Aleo 2019): +VE
Ro2 Hybrid HRM Score ([8]; In vitro Assay, ref Aleo 2019): +VE
hLiMTs ATP <20 x Cmax [5]: +VE (IC20 < 20 × Cmax.tot cut-off)

NS(=O)(=O)c1cc(C(=O)O)c(NCc2ccco2)cc1Cl [furosemide, reference compound]
Structural based (HCI) [2]: -VE
Cluser analysis [3]: -VE
Structural based (HCI) [3]: -VE
THLE-Null [9]: -VE

COC1=CC(=O)C[C@@H](C)[C@]12Oc1c(Cl)c(OC)cc(OC)c1C2=O [griseofulvin]
Structural based (HCI) [4]: -VE
Partition Hybrid HRM Score ([8]; In vitro Assay, ref Aleo 2019): +VE
Ro2 Hybrid HRM Score ([8]; In vitro Assay, ref Aleo 2019): +VE
hLiMTs ATP <20 x Cmax [5]: -VE

C[C@]12CCC(=O)C=C1CC[C@@H]1[C@@H]2[C@@H](O)C[C@@]2(C)[C@H]1CC[C@]2(O)C(=O)CO [hydrocortisone]
DILI +VE (5-8), DILI -VE (-4) ([7]; in vivo): -VE
DILI severity category ([7]; in vivo): vNo-DILI-Concern
Structural based (HCI) [4]: -VE
hLiMTs ATP <20 x Cmax [5]: -VE
In vivo DILI ([6]; in vivo): -VE

CC(Oc1c(Cl)cccc1Cl)C1=NCCN1 (stereo not drawn) [lofexidine]
In vivo DILI ([6]; assignment in Garside 2014, ref Garside 2014): -VE
Cluster 1-6 +VE Assay, In vitro Assay [1]: -VE
